What all share (type): in vivo
The test system of one series is soybean. In words: Test Example 4: effect on crop by soil treatment (symbol d). To be noted: application herbicide amount 320 g/ha. In outline: (§1)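 Diluvial soil (sterilized) in boxes; seeds placed spot-wise alongside weed species; ~1.5 cm covering soil. Greenhouse, 25–30° C.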
A further series deals with rice. In words: Test Example 4: effect on crop by soil treatment (symbol b). To be noted: application herbicide amount 320 g/ha. In outline: as §1
The subject of the next series is rice plant. In words: Test Example 5: effect on crop by foliage application, plastic box (symbol b). The note with it: 320 g/ha, 3 weeks after application. In outline:
(§2)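 Plants were raised from seed in a greenhouse (25° C. to 30° C.) after sowing in a plastic box of sterilized diluvial soil.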

Another series has as its system Amaranthus retroflexus. The experiment in a line: Test Example 4: herbicidal effect by soil treatment (symbol N). To be noted: application herbicide amount 320 g/ha. In outline: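 Seeds were sown in sterilized diluvial soil, covered with about 1.5 cm of soil, and the soil surface was sprayed with a water-diluted emulsion of the compound at a predetermined rate. Plants grew in a greenhouse at 25° C. to 30° C.; effects were scored visually 3 weeks after application.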

The test system of a further series is wheat. In words: Test Example 5: effect on crop by foliage application, plastic box (symbol e). The note with it: 320 g/ha, 3 weeks after application. In outline: as §2
A further series concerns corn. The experiment in a line: Test Example 4: effect on crop by soil treatment (symbol c). The note with it: application herbicide amount 320 g/ha. In outline: as §1
Another series concerns Monochoria vaginalis. The experiment in a line: Test Example 2: herbicidal activity, application during weed generation in submerged conditions (symbol C). To be noted: Table 23; application herbicide amount 320 g/ha; grade 0-5 by criteria of Test Example 1. In outline: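 Treatment timing was the one- to two-leaf stage, with diluted emulsifiable compound dropped onto the paddy water (depth 4 cm) over alluvial soil. All three species grew from a mixed sowing in a 25° C. to 30° C. greenhouse. Injury was judged by eye 3 weeks on.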

As for `CON=C(C)CC1CC(O)=C(c2c(C)cc(-c3ncccn3)cc2C)C1=O` (mixture of isomers) [6-057], the “d: soybean, effect on crop grade” value in the series on soybean is reported as 0 (Herbicidal ratio of 5% or lower (almost no effect)). In addition, in the series on rice, the “b: directly sowed rice plant, effect on crop grade” value is recorded as 5 (Herbicidal ratio of 90% or more (almost completely withered)). Besides, the “b: directly sowed rice plant, effect on crop (criteria of Test Example 1)” value in the series on rice plant is listed as 5 (Herbicidal ratio of 90% or more (almost completely withered)). Also, the “N: Amaranthus retroflexus, herbicidal effect grade” value in the series on Amaranthus retroflexus was 0 (Herbicidal ratio of 5% or lower (almost no effect)). Also, the “e: wheat, effect on crop (criteria of Test Example 1)” value in the series on wheat is 5 (Herbicidal ratio of 90% or more (almost completely withered)). The “c: corn, effect on crop grade” value in the series with corn is 1 (Herbicidal ratio of 5% or higher and lower than 20%). Besides, the “Herbicidal effect grade, C: Monochoria vaginalis” value (“Herbicidal effect grade, C” below) in the series with Monochoria vaginalis was 0 (Herbicidal ratio of 5% or lower (almost no effect)).

`CC(=O)CC1CC(O)=C(c2c(C)cc(OCC(F)(F)F)cc2C)C1=O` (centres unmarked) [7-015]: in the series on soybean, the “Effect on crop grade, d: soybean” value is 0 (Herbicidal ratio of 5% or lower (almost no effect)). Besides, the “Effect on crop grade, b: directly sowed rice plant” value in the series on rice is given as 5 (Herbicidal ratio of 90% or more (almost completely withered)). Further, the “b: directly sowed rice plant, effect on crop (criteria of Test Example 1)” value with rice plant was 5 (Herbicidal ratio of 90% or more (almost completely withered)). For the same molecule, the “Herbicidal effect grade, N: Amaranthus retroflexus” value in the series with Amaranthus retroflexus is reported as 0 (Herbicidal ratio of 5% or lower (almost no effect)). In addition, the “e: wheat, effect on crop (criteria of Test Example 1)” value in the series on wheat is on record as 5 (Herbicidal ratio of 90% or more (almost completely withered)). Besides, the “Effect on crop grade, c: corn” value in the series with corn is given as 5 (Herbicidal ratio of 90% or more (almost completely withered)). Also, the “Herbicidal effect grade, C” value in the series with Monochoria vaginalis is recorded as 0 (Herbicidal ratio of 5% or lower (almost no effect)).

For `CON=C(C)CC1CC(O)=C(c2c(C)cc(Oc3ccccc3)cc2C)C1=O` (centres unmarked) [6-052], the “d: soybean, effect on crop grade” value in the series with soybean is given as 0 (Herbicidal ratio of 5% or lower (almost no effect)). The “b: directly sowed rice plant, effect on crop grade” value was 1 (Herbicidal ratio of 5% or higher and lower than 20%) in the series with rice; 5 (Herbicidal ratio of 90% or more (almost completely withered)) with rice plant. Besides, the “N: Amaranthus retroflexus, herbicidal effect grade” value in the series with Amaranthus retroflexus is 0 (Herbicidal ratio of 5% or lower (almost no effect)). Further, in the series with wheat, the “e: wheat, effect on crop grade” value is 0 (Herbicidal ratio of 5% or lower (almost no effect)). In addition, the “c: corn, effect on crop grade” value in the series with corn is on record as 0 (Herbicidal ratio of 5% or lower (almost no effect)). For the same molecule, the “Herbicidal effect grade, C” value in the series with Monochoria vaginalis is given as 0 (Herbicidal ratio of 5% or lower (almost no effect)).

Regarding `CC(=O)CC1CC(O)=C(c2c(C)cc(-n3cccn3)cc2C)C1=O` (centres unmarked) [7-024], in the series on soybean, the “Effect on crop grade, d: soybean” value is 0 (Herbicidal ratio of 5% or lower (almost no effect)). Also, the “Effect on crop grade, b: directly sowed rice plant” value with rice is listed as 5 (Herbicidal ratio of 90% or more (almost completely withered)). For the same molecule, the “b: directly sowed rice plant, effect on crop (criteria of Test Example 1)” value in the series with rice plant was 3 (Herbicidal ratio of 40% or higher and lower than 70%). Further, in the series on Amaranthus retroflexus, the “Herbicidal effect grade, N: Amaranthus retroflexus” value was 0 (Herbicidal ratio of 5% or lower (almost no effect)). Besides, in the series with wheat, the “e: wheat, effect on crop (criteria of Test Example 1)” value is on record as 0 (Herbicidal ratio of 5% or lower (almost no effect)). Besides, the “Effect on crop grade, c: corn” value in the series with corn is listed as 0 (Herbicidal ratio of 5% or lower (almost no effect)). In the series on Monochoria vaginalis, the “Herbicidal effect grade, C” value is given as 0 (Herbicidal ratio of 5% or lower (almost no effect)).

`CON=C(C)CC1CC(OC(=O)N2CCOCC2)=C(c2c(C)cc(-c3ccc(Cl)cc3)cc2C)C1=O` (mixture of isomers) [6-062]: in the series on soybean, the “d: soybean, effect on crop grade” value is on record as 0 (Herbicidal ratio of 5% or lower (almost no effect)). In addition, the “b: directly sowed rice plant, effect on crop grade” value with rice is 0 (Herbicidal ratio of 5% or lower (almost no effect)). For the same molecule, the “b: directly sowed rice plant, effect on crop (criteria of Test Example 1)” value with rice plant is recorded as 5 (Herbicidal ratio of 90% or more (almost completely withered)). Further, the “N: Amaranthus retroflexus, herbicidal effect grade” value in the series on Amaranthus retroflexus is recorded as 0 (Herbicidal ratio of 5% or lower (almost no effect)). In addition, the “e: wheat, effect on crop (criteria of Test Example 1)” value in the series on wheat is 5 (Herbicidal ratio of 90% or more (almost completely withered)). Also, the “c: corn, effect on crop grade” value in the series with corn is listed as 0 (Herbicidal ratio of 5% or lower (almost no effect)). In addition, in the series with Monochoria vaginalis, the “Herbicidal effect grade, C” value is 3 (Herbicidal ratio of 40% or higher and lower than 70%).

These data come from patent US11000033B2, “Ketone or oxime compound, and herbicide” (NISSAN CHEMICAL CORPORATION, priority 2014, dated 2021).
